We go through 16 compounds from ChEMBL document CHEMBL5465560, “Selectivity Literature for EUbOPEN Chemogenomic Library” (2024).

Test [1] has as its target LIM domain kinase 1 (Homo sapiens) (UniProt P53667). Description: Selectivity interaction (LanthaScreen Eu Kinase Binding Assay) EUB0001632a LIMK1. The conditions noted are these: at 10 µM.
Test [2] concerns the target Tyrosine-protein kinase Srms (Homo sapiens) (UniProt Q9H3Y6). Kind of test: Selectivity interaction (Kinase panel (Z-LYTE Assay)) EUB0001632a SRMS. The conditions noted are these: at 10 µM.
For test [3], the target named is Vascular endothelial growth factor receptor 2 (Homo sapiens, UniProt P35968). Description: Selectivity interaction (NovaScreen assay) EUB0001542aTs KDR.
Test [4] concerns the target Ephrin type-A receptor 7 (Homo sapiens) (UniProt Q15375). Description: Selectivity interaction (Ambit KINOMEscan and KiNATiv profiling in Jurkat cells) EUB0000090b EPHA7. It counts as cell-based. The conditions noted are these: at 1 µM.
Test [5] concerns the target Protein-tyrosine kinase 6 (Homo sapiens, UniProt Q13882). Kind of test: Selectivity interaction (Ambit KINOMEscan and KiNATiv profiling in Jurkat cells) EUB0000090b PTK6. Type of test: cell-based. The following applies: at 1 µM.
For test [6], the target named is Casein kinase II subunit alpha (Homo sapiens, UniProt P68400). Kind of test: Selectivity interaction (KinomeScan (DiscoverX)) EUB0000607a CSNK2A1. The following applies: at 10 µM.
Sequence of Casein kinase II subunit alpha (P68400 whole entry, looked up): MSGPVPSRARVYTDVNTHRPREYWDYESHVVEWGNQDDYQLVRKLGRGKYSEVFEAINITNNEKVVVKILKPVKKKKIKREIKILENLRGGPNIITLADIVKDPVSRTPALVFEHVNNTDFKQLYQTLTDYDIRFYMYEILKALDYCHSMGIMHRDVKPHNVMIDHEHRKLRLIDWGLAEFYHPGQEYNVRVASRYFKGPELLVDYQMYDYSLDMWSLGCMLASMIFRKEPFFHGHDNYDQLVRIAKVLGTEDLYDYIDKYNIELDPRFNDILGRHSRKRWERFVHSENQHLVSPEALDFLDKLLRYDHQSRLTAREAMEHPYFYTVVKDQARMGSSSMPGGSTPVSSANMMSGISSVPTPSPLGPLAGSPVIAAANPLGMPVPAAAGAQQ
In test [7] the test system is RAF proto-oncogene serine/threonine-protein kinase (Homo sapiens), P04049 [Y340D,Y341D]. Kind of test: Selectivity interaction (SelectScreen profiling (Invitrogen)) EUB0000607a RAF1. The following applies: at 2 µM.
In test [8] the test system is Phosphatidylinositol 4,5-bisphosphate 3-kinase catalytic subunit alpha isoform (Homo sapiens), P42336 [C420R]. The conditions noted are these: at 10 µM.
Test [9] has as its target Dual specificity protein kinase CLK2 (Homo sapiens, UniProt P49760). The conditions noted are these: at 10 µM.
Test [10] addresses Phosphatidylinositol 4-phosphate 5-kinase type-1 gamma (Homo sapiens) (UniProt O60331). Description: Selectivity interaction (KinomeScan (DiscoverX)) EUB0000666a PIP5K1C. The conditions noted are these: at 10 µM.
Test [11] addresses Polycomb protein SUZ12 (Homo sapiens) (UniProt Q15022). The following applies: at 10 µM.
The target of test [12] is Calcium/calmodulin-dependent protein kinase kinase 1 (Homo sapiens) (UniProt Q8N5S9). Kind of test: Selectivity interaction (KinomeScan (DiscoverX)) EUB0000229b CAMKK1. The conditions noted are these: at 10 µM.
Test [13] has as its target Dual specificity mitogen-activated protein kinase kinase 1 (Homo sapiens, UniProt Q02750). Description: Selectivity interaction (KinomeScan (DiscoverX)) EUB0000655a MAP2K1. The following applies: at 10 µM.
Test [14] concerns the target Ribosomal protein S6 kinase alpha-2 (Homo sapiens) (UniProt Q15349). Description: Selectivity interaction (KinomeScan (DiscoverX)) EUB0000655a RPS6KA2. The following applies: at 10 µM.
The next test deals with Glucocorticoid receptor (Homo sapiens, UniProt P04150). Kind of test: Selectivity interaction (Glucocorticoid receptor binding assay, human recombinant ) EUB0000877a NR3C1.
Sequence of Glucocorticoid receptor (P04150 whole entry): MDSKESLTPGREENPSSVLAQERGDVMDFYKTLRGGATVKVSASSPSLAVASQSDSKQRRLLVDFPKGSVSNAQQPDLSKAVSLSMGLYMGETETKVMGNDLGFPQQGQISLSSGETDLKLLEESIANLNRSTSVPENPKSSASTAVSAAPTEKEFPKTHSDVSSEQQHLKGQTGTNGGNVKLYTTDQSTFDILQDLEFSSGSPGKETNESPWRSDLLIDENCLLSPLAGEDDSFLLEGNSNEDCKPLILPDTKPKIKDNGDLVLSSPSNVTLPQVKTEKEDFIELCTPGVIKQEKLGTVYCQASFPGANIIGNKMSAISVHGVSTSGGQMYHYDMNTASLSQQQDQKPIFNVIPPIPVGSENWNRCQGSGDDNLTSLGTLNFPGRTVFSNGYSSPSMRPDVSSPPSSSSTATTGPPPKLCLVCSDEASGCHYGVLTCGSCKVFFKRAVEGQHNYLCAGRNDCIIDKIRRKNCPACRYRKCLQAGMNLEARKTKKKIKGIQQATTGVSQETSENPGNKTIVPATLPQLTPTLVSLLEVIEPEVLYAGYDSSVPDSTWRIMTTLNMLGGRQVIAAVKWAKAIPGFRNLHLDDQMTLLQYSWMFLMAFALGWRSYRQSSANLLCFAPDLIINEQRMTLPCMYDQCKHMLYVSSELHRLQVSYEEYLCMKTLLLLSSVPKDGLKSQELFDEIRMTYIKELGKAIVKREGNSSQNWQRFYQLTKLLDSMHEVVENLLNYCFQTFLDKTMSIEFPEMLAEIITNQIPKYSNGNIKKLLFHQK
Test [15] has as its target Phosphatidylinositol 4-kinase alpha (Homo sapiens, UniProt P42356). Description: Selectivity interaction (Kinase panel (radiometric assay)) EUB0000877a PI4KA.
Test [16] deals with Epidermal growth factor receptor (Homo sapiens, UniProt P00533). Description: Selectivity interaction (Kinase screening (Nanosyn)) EUB0000604a EGFR.
For test [17], the target named is SRSF protein kinase 3 (Homo sapiens) (UniProt Q9UPE1). Description: Selectivity interaction (KinomeScan (DiscoverX)) EUB0001049a SRPK3. The conditions noted are these: at 1 µM.
Test [18] concerns the target Protein polybromo-1 (Homo sapiens) (UniProt Q86U86). Description: Selectivity interaction (Human bromodomain panel (DSF assay)) EUB0000233b PBRM1.
For test [19], the target named is Cyclin-dependent kinase 14 (Homo sapiens) (UniProt O94921). Kind of test: Selectivity interaction (KinomeScan (DiscoverX)) EUB0000045b CDK14.
Sequence of Cyclin-dependent kinase 14 (Homo sapiens) (O94921 whole entry): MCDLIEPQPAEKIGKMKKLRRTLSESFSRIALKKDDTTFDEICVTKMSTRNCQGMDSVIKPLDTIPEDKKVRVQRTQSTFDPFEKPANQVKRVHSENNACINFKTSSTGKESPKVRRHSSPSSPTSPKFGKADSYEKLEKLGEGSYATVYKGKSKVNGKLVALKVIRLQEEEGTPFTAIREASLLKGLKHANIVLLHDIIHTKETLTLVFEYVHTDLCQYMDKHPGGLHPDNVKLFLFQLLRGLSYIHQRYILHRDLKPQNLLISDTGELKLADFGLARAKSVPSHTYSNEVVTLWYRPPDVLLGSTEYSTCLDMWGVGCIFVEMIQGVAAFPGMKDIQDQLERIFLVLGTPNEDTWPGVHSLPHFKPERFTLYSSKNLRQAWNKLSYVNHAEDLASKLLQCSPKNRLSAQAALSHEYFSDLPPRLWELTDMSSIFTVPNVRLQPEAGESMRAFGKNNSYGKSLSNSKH
Test [20] addresses T1, Cyclin-dependent kinase 11A (Homo sapiens) (UniProt Q9UQ88).
T1 sequence (whole entry): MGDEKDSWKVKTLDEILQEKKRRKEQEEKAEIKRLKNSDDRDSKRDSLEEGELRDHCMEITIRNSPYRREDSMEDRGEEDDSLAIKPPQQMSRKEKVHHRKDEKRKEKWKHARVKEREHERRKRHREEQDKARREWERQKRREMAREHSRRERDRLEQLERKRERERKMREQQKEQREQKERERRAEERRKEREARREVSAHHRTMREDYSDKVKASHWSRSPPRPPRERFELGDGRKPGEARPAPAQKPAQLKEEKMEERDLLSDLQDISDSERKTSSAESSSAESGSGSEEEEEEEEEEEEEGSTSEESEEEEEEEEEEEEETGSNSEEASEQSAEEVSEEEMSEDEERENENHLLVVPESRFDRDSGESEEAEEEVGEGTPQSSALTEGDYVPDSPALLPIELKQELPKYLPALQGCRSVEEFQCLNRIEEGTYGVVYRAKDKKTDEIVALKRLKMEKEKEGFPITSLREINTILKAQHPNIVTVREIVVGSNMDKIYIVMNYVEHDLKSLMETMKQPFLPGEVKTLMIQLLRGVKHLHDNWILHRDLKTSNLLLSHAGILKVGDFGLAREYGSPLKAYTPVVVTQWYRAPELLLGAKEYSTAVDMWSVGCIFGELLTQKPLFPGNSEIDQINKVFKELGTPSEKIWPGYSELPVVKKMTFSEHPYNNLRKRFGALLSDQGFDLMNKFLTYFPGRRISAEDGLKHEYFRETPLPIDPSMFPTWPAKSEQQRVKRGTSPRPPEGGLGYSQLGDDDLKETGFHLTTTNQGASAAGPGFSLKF
Description: Selectivity interaction (KinomeScan (DiscoverX)) EUB0000618a CDK11A. The conditions noted are these: at 10 µM.

Test [21] concerns the target Calcium/calmodulin-dependent protein kinase type 1 (Homo sapiens) (UniProt Q14012). Description: Selectivity interaction (KinomeScan (DiscoverX)) EUB0000595a CAMK1. The following applies: at 10 µM.

The structures appear in SMILES notation.

Sequence of Phosphatidylinositol 4-kinase alpha (P42356 whole entry): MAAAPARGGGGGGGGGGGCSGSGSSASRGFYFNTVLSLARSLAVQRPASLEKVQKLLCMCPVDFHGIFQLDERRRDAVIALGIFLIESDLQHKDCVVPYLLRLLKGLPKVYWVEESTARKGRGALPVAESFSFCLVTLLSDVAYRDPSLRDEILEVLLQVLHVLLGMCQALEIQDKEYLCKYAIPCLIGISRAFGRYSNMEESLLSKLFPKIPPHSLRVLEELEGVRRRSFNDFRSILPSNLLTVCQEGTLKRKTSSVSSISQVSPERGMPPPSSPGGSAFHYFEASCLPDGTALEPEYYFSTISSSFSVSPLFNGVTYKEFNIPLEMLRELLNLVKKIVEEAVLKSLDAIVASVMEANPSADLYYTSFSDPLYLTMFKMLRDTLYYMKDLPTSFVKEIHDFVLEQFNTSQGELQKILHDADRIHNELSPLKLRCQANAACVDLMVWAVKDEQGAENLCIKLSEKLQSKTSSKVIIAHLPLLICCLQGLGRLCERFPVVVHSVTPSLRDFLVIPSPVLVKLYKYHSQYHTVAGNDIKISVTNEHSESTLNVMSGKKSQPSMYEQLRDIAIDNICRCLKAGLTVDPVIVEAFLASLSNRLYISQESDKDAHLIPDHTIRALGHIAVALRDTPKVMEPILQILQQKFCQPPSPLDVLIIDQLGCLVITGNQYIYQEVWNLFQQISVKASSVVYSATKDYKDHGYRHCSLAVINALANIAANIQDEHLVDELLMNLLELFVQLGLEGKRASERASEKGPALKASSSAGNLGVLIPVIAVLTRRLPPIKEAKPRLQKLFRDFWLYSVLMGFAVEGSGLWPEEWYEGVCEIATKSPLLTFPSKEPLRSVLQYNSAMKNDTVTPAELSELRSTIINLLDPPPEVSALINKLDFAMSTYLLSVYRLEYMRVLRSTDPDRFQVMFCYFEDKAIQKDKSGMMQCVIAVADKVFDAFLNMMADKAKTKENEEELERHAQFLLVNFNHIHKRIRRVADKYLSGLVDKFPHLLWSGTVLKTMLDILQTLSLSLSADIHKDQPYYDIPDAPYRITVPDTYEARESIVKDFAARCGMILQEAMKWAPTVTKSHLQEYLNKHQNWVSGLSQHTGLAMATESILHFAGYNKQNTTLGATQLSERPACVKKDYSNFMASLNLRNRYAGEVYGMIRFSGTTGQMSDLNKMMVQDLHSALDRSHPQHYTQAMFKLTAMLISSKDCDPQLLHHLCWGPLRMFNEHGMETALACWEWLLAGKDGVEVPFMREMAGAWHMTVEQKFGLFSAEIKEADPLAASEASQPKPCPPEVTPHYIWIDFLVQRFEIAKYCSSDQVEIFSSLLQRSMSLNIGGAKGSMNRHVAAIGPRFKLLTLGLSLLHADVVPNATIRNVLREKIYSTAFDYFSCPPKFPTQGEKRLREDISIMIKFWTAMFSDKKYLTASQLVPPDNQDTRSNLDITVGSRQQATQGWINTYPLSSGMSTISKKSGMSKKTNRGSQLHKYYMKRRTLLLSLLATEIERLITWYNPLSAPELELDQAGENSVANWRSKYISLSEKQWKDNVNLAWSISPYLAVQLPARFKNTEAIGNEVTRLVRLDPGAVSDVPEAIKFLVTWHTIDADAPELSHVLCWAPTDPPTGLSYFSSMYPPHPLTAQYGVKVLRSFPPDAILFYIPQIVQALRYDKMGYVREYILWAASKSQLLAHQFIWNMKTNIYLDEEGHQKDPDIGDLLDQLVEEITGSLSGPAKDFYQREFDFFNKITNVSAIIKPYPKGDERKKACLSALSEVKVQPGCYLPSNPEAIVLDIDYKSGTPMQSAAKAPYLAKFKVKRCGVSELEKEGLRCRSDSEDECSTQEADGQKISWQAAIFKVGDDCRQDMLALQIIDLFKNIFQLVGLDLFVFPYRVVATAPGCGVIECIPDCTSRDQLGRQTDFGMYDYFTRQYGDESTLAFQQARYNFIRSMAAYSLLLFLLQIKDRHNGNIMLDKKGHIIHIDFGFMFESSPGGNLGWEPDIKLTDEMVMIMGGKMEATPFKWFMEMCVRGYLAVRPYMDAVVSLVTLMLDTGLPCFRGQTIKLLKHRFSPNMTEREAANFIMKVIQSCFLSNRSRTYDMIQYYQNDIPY
Sequence of Polycomb protein SUZ12 (Homo sapiens) (Q15022 whole entry): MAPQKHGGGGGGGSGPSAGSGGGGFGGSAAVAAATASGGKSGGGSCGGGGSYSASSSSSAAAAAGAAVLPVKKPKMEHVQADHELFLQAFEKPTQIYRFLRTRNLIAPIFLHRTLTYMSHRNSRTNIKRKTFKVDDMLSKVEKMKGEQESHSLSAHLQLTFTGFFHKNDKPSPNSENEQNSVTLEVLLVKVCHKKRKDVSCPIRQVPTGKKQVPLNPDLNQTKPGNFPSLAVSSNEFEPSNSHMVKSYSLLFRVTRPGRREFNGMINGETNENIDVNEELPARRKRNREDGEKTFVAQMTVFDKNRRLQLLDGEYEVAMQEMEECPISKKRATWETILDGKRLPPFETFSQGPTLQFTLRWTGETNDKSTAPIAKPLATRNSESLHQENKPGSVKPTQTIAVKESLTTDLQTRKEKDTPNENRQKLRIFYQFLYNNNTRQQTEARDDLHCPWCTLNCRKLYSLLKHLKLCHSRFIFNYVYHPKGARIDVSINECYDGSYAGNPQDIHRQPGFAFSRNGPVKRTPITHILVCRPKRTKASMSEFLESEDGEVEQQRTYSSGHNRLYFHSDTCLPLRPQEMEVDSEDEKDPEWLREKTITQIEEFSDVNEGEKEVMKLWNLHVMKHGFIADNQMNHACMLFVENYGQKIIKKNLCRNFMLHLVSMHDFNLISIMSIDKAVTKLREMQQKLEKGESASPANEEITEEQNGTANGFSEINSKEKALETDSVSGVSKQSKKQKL
Sequence of Protein-tyrosine kinase 6 (Q13882 whole entry, looked up): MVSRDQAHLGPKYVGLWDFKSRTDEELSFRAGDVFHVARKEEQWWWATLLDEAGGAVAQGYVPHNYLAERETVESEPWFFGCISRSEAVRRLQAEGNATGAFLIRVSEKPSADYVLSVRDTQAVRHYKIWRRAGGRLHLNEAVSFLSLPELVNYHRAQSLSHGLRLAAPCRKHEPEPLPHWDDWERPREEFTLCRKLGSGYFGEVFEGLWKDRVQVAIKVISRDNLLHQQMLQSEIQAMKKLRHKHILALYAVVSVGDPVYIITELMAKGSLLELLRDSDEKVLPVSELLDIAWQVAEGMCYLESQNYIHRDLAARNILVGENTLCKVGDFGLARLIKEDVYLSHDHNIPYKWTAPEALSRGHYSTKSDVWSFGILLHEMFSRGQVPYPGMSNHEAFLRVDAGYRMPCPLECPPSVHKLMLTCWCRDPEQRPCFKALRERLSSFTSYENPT

Turning to `Cn1cc(-n2cnc3c(NCc4nc5cc(Cl)c(Cl)cc5[nH]4)nc(N4CCOCC4)nc32)cn1`, the % of inhibition in test [1] is -36.5%. For the same compound, in test [2], the % of control is -3.87%.
With `Cn1cc(Nc2nccc(N3CC4CCC(C3)N4C(=O)[C@@H]3CC3(F)F)n2)cn1`, the IC50 in test [3] was over 30 µM.
For the compound `CN(C)C/C=C/C(=O)Nc1ccc(C(=O)N2CCCC(Nc3ncc(Cl)c(-c4c[nH]c5ccccc45)n3)C2)cc1` (stereo not drawn), the figures for the % of control in test [4] and in test [5] were 93% and 84%, respectively.
With `CNC(=O)Nc1ccc(-c2nc(N3CC4CCC(C3)O4)c3cnn(C4CCC5(CC4)OCCO5)c3n2)cc1`, the % of control came out at 80% in test [6] and 11% in test [8]. The % of inhibition in [7] was 12%.
With `Cc1cc([C@@H](C)Nc2ccccc2C(=O)O)c2nc(N3CCOCC3)cc(=O)n2c1` [AZD-6482], the % of control in [9] was 70%.
In the case of `O=C(NOC[C@H](O)CO)c1ccc(F)c(F)c1Nc1ccc(I)cc1F`, in [10], the % of control worked out at 100%.
For `CNCCN1CCC(c2cc(CN(C)C(=O)c3cccc(Oc4ccccc4)c3)ccn2)CC1`, the % activity in test [11] is over 90%.
Regarding `COc1cc(N(C)c2ccnc3ccc(C(F)(F)F)cc23)cc(OC)c1OC`, in test [12], the % binding came to 97%.
In the case of `CN(C)CCOc1ccc(-c2nc(-c3ccncc3)c(-c3ccc4c(c3)CC/C4=N\O)[nH]2)cc1`, the % of control in [13] turned out to be 99%; in [14], 100%.
Take `CCC(=O)N1CC[C@H](Nc2ncnc3c2CN(c2cnc(OC)c(C(F)(F)F)c2)CC3)C1` [LENIOLISIB]: the IC50 is over 30 µM at Glucocorticoid receptor and over 9.1 µM in [15].
As for `Cc1cnc(Nc2ccc(F)cc2Cl)nc1-c1c[nH]c(C(=O)N[C@H](CO)c2cccc(Cl)c2)c1`, in test [16], the % of inhibition was determined as 6%.
For the compound `COc1cc(Nc2nc(C)cc(-c3cnn4nc(OC)ccc34)n2)cc(C(F)(F)F)c1`, the % of control in test [17] was determined as 65%.
Regarding `CN(C)CCCOc1ccc(-c2cc(NCCCn3cccn3)nc(S(C)(=O)=O)n2)cc1`, the dTM in [18] is under 2 K.
Regarding `C=CC(=O)Nc1cc(-n2c(=O)ccc3cnc4ccc(-c5ccc(NS(C)(=O)=O)cc5)cc4c32)ccc1C`, the % of control was 100% in test [19] (at 1 µM) and 72% in test [19] (at 10 µM).
Turning to `O[C@H]1CC[C@H](Nc2ncc3nc(Nc4c(F)cc(F)cc4F)n([C@H]4CCOC4)c3n2)CC1`, in test [20], the % of control came out at 98%.
As to `COCC(=O)NC/C=C/c1ccc2ncnc(Nc3ccc(Oc4ccc(C)nc4)c(C)c3)c2c1` [CP-724714], the % of control in test [21] stood at 72%.
